These results are taken from article PMC3438379 (Journal of enzyme inhibition and medicinal chemistry, 2011).

Series [1] in a line: Relative aqueous solubility by stepwise water dilution of DMSO solution. The format is physicochemical. The note with it: 50 μL DMSO solution of 5 mg mL^−1, water added in 50 μL steps.
Another series has as its target HIV-1 protease (Human immunodeficiency virus type 1 group M subtype B, UniProt P04585). The following applies: read-out: IC50 (inhibition of HIV-1 protease), cited from earlier work.
For series [2] the following is noted: cited from earlier work.
Series [3] deals with HIV-1-infected MT-4 cells. The note with it: ref [9]; cited from earlier work.

Read-outs that look alike come from different tables or passages of the source.

Usually IC50 stands for the point on the concentration scale where inhibition reaches its midpoint. Take `C=C(C)[C@@H]1CC[C@]2(C(=O)O)CC[C@]3(C)[C@H](CC[C@@H]4[C@@]5(C)CC[C@H](O)C(C)(C)[C@@H]5CC[C@]43C)[C@@H]12` [compound 1, 3β-hydroxy-lup-20(29)-en-28-oic acid]: the “Water solubility (dilution steps required to achieve clear solution)” value in series [1] is below 2 x. On HIV-1 protease (ref [18]), the IC50 is 9 µM. On HIV-1 protease (ref [19]), the IC50 was 2.5 µM. In series [2] (25°C, ref [23]), the “solubility in DMSO” value was 5 % (w/v) and the solubility in ethanol is recorded as 1 % (w/v). Besides, the Water solubility in series [2] (at 25°C, ref [22]) is 0.02 µg/mL. Also, the solubility in water entry in series [2] (room temperature, ref [22]) was “about 0.02 μg mL^−1”.
With `C=C(C)[C@@H]1CC[C@]2(C(=O)O)CC[C@]3(C)[C@H](CC[C@@H]4[C@@]5(C)CC[C@H](OC(=O)CC(C)(C)C(=O)O)C(C)(C)[C@@H]5CC[C@]43C)[C@@H]12` [3-O-(3′,3′-dimethylsuccinyl) betulinic acid], the “activity against HIV-induced cytopathic effects” value in series [3] is on record as “high activity”.
For the compound `C=C(C)[C@@H]1CC[C@]2(C(=O)[O-])CC[C@]3(C)[C@H](CC[C@@H]4[C@@]5(C)CC[C@H](O)C(C)(C)[C@@H]5CC[C@]43C)[C@@H]12.C[N+](C)(C)CCO` [compound 8, cholinium betulinate], the “Water solubility (dilution steps required to achieve clear solution)” value in series [1] is above 100x.
